Consider two compounds from patent publication US8563578B2, “Antitumor properties of NO modified protease inhibitors” (Onconox APS, priority 2008, dated 2013).

The test system of data set [1] is C6 cells. Put plainly: Autophagy detection by acridin orange staining, C6. Type of data set: cell-based, rat. As to conditions: 18.8 μM, 24 h. As for the experimental part: Vital dye acridin orange (AO) was used for detection of autophagy. The intensity of red fluorescence correlates with acidity and volume of present autophagic organelles (Kanzawa et al. 2004). Assay was performed as follows: the cells were cultured in 6-well plate (2×10^5/well) 24 h in the presence of the drug, detached with trypsin and stained with 1 μg/ml AO in RPMI without phenol red for 15 min at RT. After the end of incubation period cells were washed and resuspended in PBS. Green and red fluorescence emission was measured with a FACSCalibur and analyzed using CellQuest software.
(§1) FIG. 4. […] Results are calculated as indicated in materials and methods and presented as mean±SD from representative of three independent experiment (*p <0.05). […] After 24 h of cultivation without or with drugs, cells were stained with AO orange (B) or PI (C) and analyzed by flow cytometry. The data are presented as mean±SD from three independent experiments. *p<0.05, refers to untreated cultures. […] Cells were incubated with 18.8 μM of Sag or Saq-NO2 for 24 h. After that, the drugs were either removed or not from the cells and incubated for additional 24 h. Cell viability was determined by CV test after 24 and 48 h of incubation (right panels). The data are presented as mean±SD from three independent experiments. *p<0.05, refers to untreated cultures.

For data set [2], the system named is C6 cells. The data set is described as follows: LDH release assay, C6. In kind it is cell-based. As to conditions: 24 h, different doses. As to the method:
(§2) Reduction of 3-4,5-dimethylthiazol-2-yl)-2,5-diphenyltetrazolium bromide (MTT) to formazan depends on mitochondrial activity of cultured cells, absorption of crystal violet dye correlates with the number of adherent, live cells, while the release of cytosolic lactate dehydrogenase (LDH) indicates the disruption of membrane integrity caracteristic for necrotic cells. The cells were seeded in flat-bottom 96-well plates in a final volume of 200 μl of culture medium containing different agents, and the assays were performed after 24 h incubation exactly as previously described (Mijatovic et al. 2004, Decker et al., 1998). Mitohondrial-dependent production of formazan and intensity of absorbed crystal violet by adherent cells were assessed by an automated microplate reader at 570 nm, while the pyruvate-mediated conversion of 2,4-dinitrophenylhydrazine into visible hydrazone precipitate in LDH assay was measured at 492 nm. The % of cytotoxicity as indicated by LDH release was calculated as: (E−C)/(T−C)×100, where E is the experimental absorbance of cell cultures, C is the control absorbance of cell-free culture medium, and T is the absorbance corresponding to the maximal (100%) LDH release of Triton-lysed cells.
FIG. 4. […] Results are calculated as indicated in materials and methods and presented as mean±SD from representative of three independent experiment (*p <0.05). […]

Another data set concerns B16 melanoma. Put plainly: B16 melanoma growth in syngeneic C57BL/6 mice. In kind it is in vivo, mouse. As to conditions: 10 mg/kg i.p.; for animals that developed tumors at autopsy: day 30 post tumor challenge. As for the experimental part:
In order to induce primary tumor 2×10^5 B16 melanoma cells were injected subcutaneously (s.c) in the dorsal right lumbosacral region of syngeneic C57BL/6 mice. Tumor growth was observed daily, and the drug treatment started from day 10 after implantation. […] Mice were sacrificed on day 30, tumor growth was determined by three-dimensional measurements of individual tumors from each mouse. Tumor volume was calculated as: [0.52×a×b^2], where a is the longest and b is the shortest diameter as described previously (Maksimovic-Ivanic et al. 2008).
FIG. 7. […] Tumor volumes were determined 30 days after tumor implantation, as indicated in Materials and methods.

The test system of a further data set is B16 cells. Put plainly: LDH release assay, B16. In kind it is cell-based. As to conditions: for LDH release (cytotoxicity, necrosis): 24 h, different doses. As to the method:
as §2, with “The cells were seeded in flat-bottom 96-well plates in a final volume of 200 μl of culture medium containing different agents, and the assays were performed after 24 h incubation exactly as previously described (Mijatovic et al. 2004, Decker et al., 1998).” left out
as §1
In general terms: LDH leaks from cells whose membrane has failed.

The test system of the next data set is rat primary astrocytes. The data set is described as follows: Cell viability by CV test, primary astrocytes. In kind it is cell-based. As to conditions: 24 h, Sag at its IC50 dose. From the text:
Rat glioma C6 and human glioblastoma U251 cell lines were a kind gift from Dr. Pedro Tranque (Universidad de Castilla-La Mancha, Albacete, Spain), murine melanoma B 16, and human adenocarcinoma HeLa, were a kind gift from Dr. Sinisa Radulovic (Institute for Oncology and Radiology of Serbia, Belgrade, Serbia) while mouse fibrosarcoma L929 was obtained from the European Collection of Animal Cell Cultures (Salisbury, UK). Human breast HCC1419 and prostate PC-3 cells were purchased from LGC Promochem srl (Venezia, Italy). Primary mouse fibroblasts and rat astrocytes were prepared as described (Mijatovic et al. 2004). […]
Reduction of 3-4,5-dimethylthiazol-2-yl)-2,5-diphenyltetrazolium bromide (MTT) to formazan depends on mitochondrial activity of cultured cells, absorption of crystal violet dye correlates with the number of adherent, live cells, while the release of cytosolic lactate dehydrogenase (LDH) indicates the disruption of membrane integrity caracteristic for necrotic cells. […] Mitohondrial-dependent production of formazan and intensity of absorbed crystal violet by adherent cells were assessed by an automated microplate reader at 570 nm, while the pyruvate-mediated conversion of 2,4-dinitrophenylhydrazine into visible hydrazone precipitate in LDH assay was measured at 492 nm. […]
FIG. 2. […] Cell viability was then evaluated by CV test. […]

Setting [3] is: 15 consecutive days from day 10.

For `CC(C)(C)NC(=O)[C@@H]1C[C@@H]2CCCC[C@@H]2CN1C[C@@H](O)[C@H](Cc1ccccc1)NC(=O)[C@H](CC(N)=O)NC(=O)c1ccc2ccccc2n1` [Saq, Saquinavir, reference compound], the “amount of acidic vesicles in the cytoplasm (autophagy)” value in the data set on C6 cells [1] was “absence of autophagia”. The “LDH release (cytotoxicity, necrosis)” value in the data set with C6 cells [2] is recorded as “induced LDH release in both cell lines in a dose-dependent way”. Also, in the data set on B16 melanoma (15 consecutive days), the “animals without tumors with strong inflammation of peritoneum” value is 4 animals and the “loss of body weight from initial body weight” value is 10%. Further, in the data set with B16 melanoma (15 consecutive days from day 10, day 30), the tumor volume entry is “significantly reduced volume”. For the same compound, the “animals that developed tumors at autopsy” value in the data set on B16 melanoma (setting [3]) is given as 3/9. For the same compound, the “LDH release (cytotoxicity, necrosis)” value in the data set on B16 cells was “induced LDH release in both cell lines in a dose-dependent way”. Moreover, the “effect on viability of non-transformed primary astrocytes” value in the data set with rat primary astrocytes is recorded as “highly toxic”.

`CC(C)(C)NC(=O)[C@@H]1C[C@@H]2CCCC[C@@H]2CN1C[C@@H](O[N+](=O)[O-])[C@H](Cc1ccccc1)NC(=O)[C@H](CC(N)=O)NC(=O)c1ccc2ccccc2n1` [Saq-NO2, nitric ester of Saquinavir]: in the data set with C6 cells [1], the “amount of acidic vesicles in the cytoplasm (autophagy)” value is “absence of autophagia”. Further, the “LDH release (cytotoxicity, necrosis)” value was “significant percentage of C6 cytotoxicity was detected only upon the highest dose” with C6 cells [2], “induced significant cytoxicity even at lowest dose tested” in the data set with B16 cells and “dose-dependent LDH release was detected upon all tested doses” in the data set with B16 cells (listed as Saq-NO). Besides, the “raise of body weight, of initial body weight” value with B16 melanoma (15 consecutive days) is on record as 13%. For the same compound, the “visible signs of toxicity” value in the data set with B16 melanoma (15 consecutive days) is on record as “no any visible signs of toxicity”. For the same compound, the “animals that developed tumors at autopsy” value with B16 melanoma (setting [3]) was “one”. The cytotoxicity at 18.8 µM in the data set with B16 cells (Mus musculus, 18.8 μM, 18 h of exposure, control 2.3%) was 6.2%. Further, the “effect on viability of non-transformed primary astrocytes” value in the data set on rat primary astrocytes is reported as “did not affect the viability”.
